Reference: patent US12285421B2, “Uses of a 5-HT4 receptor agonist” (SUVEN LIFE SCIENCES LIMITED, priority 2018, dated 2025)

What was measured:
[1] = tested on: ovariectomized female Wistar rats; experiment: Object recognition task, in vivo model for dementia due to menopause; set-up: species or system rat; conditions: ~12 months after surgery, dosed 60 min prior to trial-1, FIG. 1
Description: Bilateral ovariectomy surgery was carried out in 7-8 weeks old female rats. Briefly, animals were anesthetized using Avertin (2,2,2-tri bromo ethanol) at 150 mg/kg, i.p. and were lay down on the surgery table. A midline incision was given on the dorsal region below the rib cage and 1 cm lateral to the either side of midline, a small incision was given on fascia to locate the adipose fat supporting the ovaries. By slowly pulling out the fat tissue, the ovary was identified and excised following the uterine horn ligation with silk sutures. Fascia was also covered with sutures and the similar procedure was repeated on the other side. Superficial skin layers were sutured and gentamicin (15 mg/kg, s.c.) was given as antibiotic and meloxicam (1 mg/kg, i.m.) as analgesic with povidone iodine applied on superficial skin layers at last. Episodic memory which is a memory of autobiographical events contextual in relation to time, place etc. was assessed ˜12 months after the surgery using object recognition task. On experiment day 1, rats were transferred to experimental room for acclimatization. On experiment day 2, all groups of animals were habituated to their respective test arenas for a period of 30 min prior to trial-1. […] Discriminative index (b−a3/b+a3) was calculated and compared among the groups.

Male Wistar rats [2] = experiment: Dominant Submissive Model (DSM) for depression; type: in vivo, rat; conditions: 3 mg/kg, p.o., submissive rats treated, significance in 5th week (p<0.05), FIG. 4
Description: A total of 220 male Wistar rats (110 pairs) of ˜150-200 g weight were selected. The animals were randomized on the basis of body weight and matched for body weight, pair wise. The pairs were habituated to the testing apparatus and milk for a period of 5 min per day for 5 days (first week). The animals were housed such that these pairs met only during the trial time. Each pair was given equal access to milk containing 9% sucrose in a beaker (10 mL), which was placed in an opening on the floor at the midpoint of the tunnel. During the second week, time spent in drinking the milk by a pair of rats was recorded and scored for a period of 5 min. Once the 5 min period was over, the rat pair was returned to their respective home cages.
Pairs, which met the above criteria were selected and randomized based on the dominance levels. Both the dominant and submissive animals of the control group were treated with vehicle (sterile water, 4 mL/kg, p.o.). […] During the test period (three weeks), time spent in drinking the milk was recorded for each animal of a pair for a period of 5 min. […] Dominance level (the average of difference in daily drinking score between the dominant and submissive partners during the testing period) was analyzed using repeated measure one way ANOVA followed by Tukey's test against its dominance level during 2nd week (FIG. 4).

serotonin = experiment: In vivo brain microdialysis, serotonin modulation in ventral hippocampus; conditions: Compound-1 3 mg/kg, p.o. alone, rat ventral hippocampus
Excerpt: Incorrect probe placement was considered as criteria to reject the data from animal.

Male Wistar rats [3] = experiment: Object recognition task (NORT), MK-801 induced cognitive impairment; conditions: 0.3 and 1 mg/kg, p.o., FIG. 3
Description: During the familiarization phase, (T1), the rats were placed individually in the arena for 3 minutes, in which two identical objects (a1 and a2) were positioned 10 cm from the wall. Ninety minutes after T1, choice phase was performed. Rats were placed in the same arena as they were placed in T1 trial. During the choice phase (T2) rats were allowed to explore the arena for 3 minutes in presence of a copy of familiar object (a3) and one novel object (b).

COCCCN1CCC(c2nnc(-c3nn(C(C)C)c4ccccc34)o2)CC1.O=C(O)C(=O)O [Compound-1, Isopropyl-3-{5-[1-(3-methoxypropyl)piperidin-4-yl]-[1,3,4]oxadiazol-2-yl}-1H-indazole oxalate]
object recognition memory deficits [1]: reversed | dominance levels (Male Wistar rats [2]): decreased | increase in hippocampal serotonin levels above pre-dose levels (serotonin): 22% | MK-801 induced memory deficit (Male Wistar rats [3]): reversed
